Experimental data from US20080070794A1, “Chemical sensors” (The Trustees of Princeton University, priority 2005, published 2008).
Substitutions are numbered along the chain they refer to. Entries after “also recorded” stand apart in the source; their conditions may differ.

Assays:
Assay type in all cases: cell-based
[1] = molecular target: T1, wild type UDPG receptor (P2Y14) (Homo sapiens, UniProt Q15391); assay: β-galactosidase reporter assay in yeast, wild type receptor
T1 construct: The entire UDPG receptor gene was mutagenized via error-prone mutagenesis; expressed in transfected cells; host or cells: Saccharomyces cerevisiae CY10560 (growth) / CY10981 with Cp1021 FUS1-LacZ (β-galactosidase)
T1 sequence (Q15391 1-338): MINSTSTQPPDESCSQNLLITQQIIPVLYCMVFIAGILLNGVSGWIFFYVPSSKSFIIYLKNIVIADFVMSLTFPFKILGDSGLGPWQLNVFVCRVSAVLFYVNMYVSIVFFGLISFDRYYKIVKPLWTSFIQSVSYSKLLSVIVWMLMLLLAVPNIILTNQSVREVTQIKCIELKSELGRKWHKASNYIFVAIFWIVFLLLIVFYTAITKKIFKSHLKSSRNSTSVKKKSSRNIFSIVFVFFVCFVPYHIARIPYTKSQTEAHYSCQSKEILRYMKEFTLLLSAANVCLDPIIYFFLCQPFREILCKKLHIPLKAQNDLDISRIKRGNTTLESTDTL

[2] = molecular target: T2, UDPG receptor mutant H-20 (Homo sapiens, UniProt Q15391, A193V/A252V/A98V/F243I/I251T/K54E/R253K); assay: β-galactosidase reporter assay in yeast, mutant H-20 receptor
T2 construct: The entire UDPG receptor gene was mutagenized via error-prone mutagenesis; expressed in transfected cells; host or cells: Saccharomyces cerevisiae CY10560 (growth) / CY10981 with Cp1021 FUS1-LacZ (β-galactosidase)
T2 sequence (Q15391 1-338 K54E/A98V/A193V/F243I/I251T/A252V/R253K): T1 sequence (Q15391 1-338) with K54E, A98V, A193V, F243I, I251T, A252V, R253K
Method: (§1) Strains and plasmids. Mutagenesis and selection were performed in yeast strain […] can1-100 […] […] […] ura3-52). β-Galactosidase assays were performed using yeast strain CY10981 (PFUS1-HIS3 can1-100 […] […] […] ura3-52) carrying plasmid Cp1021 (PFUS1-LacZ 2 μm URA3).

UDPG receptor mutant K-3 = molecular target: T3, UDPG receptor mutant K-3 (Homo sapiens, UniProt Q15391, A193V/A252V/A98V/E278G/F243I/I251T/K54E/R253K); assay: β-galactosidase reporter assay in yeast, mutant K-3 receptor
T3 construct: The entire UDPG receptor gene was mutagenized via error-prone mutagenesis; expressed in transfected cells; host or cells: Saccharomyces cerevisiae CY10560 (growth) / CY10981 with Cp1021 FUS1-LacZ (β-galactosidase)
T3 sequence (Q15391 1-338 K54E/A98V/A193V/F243I/I251T/A252V/R253K/E278G): T1 sequence (Q15391 1-338) with K54E, A98V, A193V, F243I, I251T, A252V, R253K, E278G
Method: as §1

[3] = molecular target: T4, UDP-glucose receptor 2211 (Homo sapiens, UniProt Q15391, A193V/A252V/A98V/F243I/K54E); assay: β-galactosidase reporter assay in yeast, mutant 2211 receptor
T4 construct: The entire UDPG receptor gene was mutagenized via error-prone mutagenesis; expressed in transfected cells; host or cells: Saccharomyces cerevisiae CY10560 (growth) / CY10981 with Cp1021 FUS1-LacZ (β-galactosidase)
T4 sequence (Q15391 1-338 K54E/A98V/A193V/F243I/A252V): T1 sequence (Q15391 1-338) with K54E, A98V, A193V, F243I, A252V
Method: as §1

K-3 mutant = molecular target: T5, K-3 mutant (Homo sapiens, UniProt Q15391, A193V/A252V/A98V/E278G/F243I/I251T/K54E/R253K); assay: Yeast growth assay, mutant K-3 receptor; settings: relative to parent H-20
T5 construct: The entire UDPG receptor gene was mutagenized via error-prone mutagenesis; expressed in transfected cells; host or cells: Saccharomyces cerevisiae CY10560 (growth) / CY10981 with Cp1021 FUS1-LacZ (β-galactosidase)
T5 sequence (Q15391 1-338 K54E/A98V/A193V/F243I/I251T/A252V/R253K/E278G): T1 sequence (Q15391 1-338) with K54E, A98V, A193V, F243I, I251T, A252V, R253K, E278G
Excerpt: Targeted mutagenesis and selection of functional receptor mutants. To generate targeted mutants, oligonucleotides with randomized sequences, corresponding to the codons to be mutagenized, were utilized to generate overlapping PCR products. The method and many applicable variations thereof are known in the art.
The HTVK mutant, designated H-20, was selected as the template for mutagenesis of three additional motifs, ‘AxxFY’ and ‘NMY’ in TM3, and ‘KExT’ in TM7.

For `O=c1ccn([C@@H]2O[C@H](COP(=O)(O)OP(=O)(O)O)[C@@H](O)[C@H]2O)c(=O)[nH]1` [UDP, uridine diphosphate], the “agonist/antagonist character at wild type receptor” value [1] was “primarily as an antagonist”, the “agonist/antagonist character at H-20 receptor” value [2] was “increasingly strong partial agonist” and the “agonist/antagonist character at K-3 receptor” value (UDPG receptor mutant K-3) was “at least a partial agonist; also recorded: increasingly strong partial agonist”. The “agonist/antagonist character at 2211 receptor” value [3] was “weakly activated; also recorded: competitive inhibitor; also recorded: primarily as an antagonist”, the “Slope of the linear fit, Schild regression” value ([3]; UDP antagonism of UDP-glucose agonist activity, FIG. 2 Panel B) was roughly 0.8 and the “growth in response to ligand” value (K-3 mutant) was “grew in the presence”.
